Test results taken from patent publication US20250345318A1, “COMPOUND AND USE THEREOF IN PREVENTING OR TREATING RADIATION DAMAGE” (SIMCERE PHARMACEUTICAL CO., LTD., priority 2022, published 2025).

What was measured:
lung tissue = experiment: JWA, γ-H2AX, p-p65 in lung tissue of xenograft mice (immunofluorescence, immunoblot) (Example 21); type: in vivo
Text: In order to verify the protection effect of JAC4 against X-ray-induced DNA damage in lung tissues, 3 mice were randomly selected from each group to provide the lung tissue for immunofluorescence staining, and proteins were extracted from the lung tissues of the other 3 mice for western immunoblot to detect the expression levels of JWA, γ-H2AX, and p-p65, thereby verifying the relation between the targets of JAC4 and the reduction of DNA damage and apoptotic damages in the lung tissues. The western blot procedures are detailed in Example 4, and the immunofluorescence staining procedures are as follows:
1. Dewaxing and hydration: Prepared paraffin sections were dewaxed in an oven at 60° C. for 2-3 h to ensure a tight attachment between the section and the slide; the sections were then dewaxed by soaking in xylene I, 30 min→xylene II, 30 min→xylene III, 30 min→absolute ethyl alcohol I, shaker, 5 min→absolute ethyl alcohol II, shaker, 5 min→95% ethyl alcohol, shaker, 5 min→85% ethyl alcohol, shaker, 5 min→75% ethyl alcohol, shaker, 5 min→PBS, shaker, 5 min×3.
2. Antigen retrieval: The washed sections were boiled in 500 mL of 1× antigen retrieval solution (20× sodium citrate buffer 25 mL, pH 6.0, diluted to 1× in 475 mL of PBS), then taken out 10 min after the solution started boiling, and cooled to room temperature.
3. Cleaning and blocking: The sections were washed with PBS for 5 min thrice on a shaker. Droplets on the sections were removed carefully without overdrying. The edges of the sections were marked with an immunofluorescent pen, and a blocking buffer (centrifuged at 12,000 g for 5 min) was dropwise added to completely cover the sections. The sections were blocked for 1 h at room temperature.
4. Cleaning and co-incubation with primary antibody: After removing the blocking buffer, the sections were washed with PBS for 5 min thrice on a shaker; the primary antibody (centrifuged at 6,000 g for 5 min) was added dropwise to cover the sections, and the sections were incubated into a humidified chamber overnight at 4° C.
5. Cleaning and co-incubation with secondary antibody: The sections were washed with PBS for 5 min thrice on a shaker before the fluorescent secondary antibody (centrifuged at 6,000 g for 5 min) was added dropwise away from light. The sections were incubated at room temperature for 1 h.
6. Cleaning, nucleus staining, and photographing: The whole procedure was performed away from light. The sections were washed with PBS for 5 min thrice on a shaker. An anti-fluorescence quenching blocker containing DAPI was added dropwise. The cover glass was mounted for sealing and slowly from one side to avoid bubbles. The sealed slices were incubated in a humidified chamber for 15 min and continuously photographed to give images under a laser confocal microscope.

IEC-6 cells [1] = experiment: γ-H2AX immunofluorescence in irradiated IEC-6 cells (Example 13); type: cell-based; settings: JAC4 + radiation
Experimental: The cell immunofluorescent images of γ-H2AX in different treatment groups were recorded after the IEC-6 cells were irradiated, and the mean fluorescence intensity of individual cells (***p<0.001) was measured using Image J. The results are shown in FIG. 19.

IEC-6 cells [2] = experiment: Colocalization of cytochrome C and mitochondria in irradiated IEC-6 cells (Example 13); type: cell-based; settings: 1 μM JAC4 24 h pretreatment + 12 Gy, 24 h after
Experimental: The effect was explored in a small intestinal epithelial IEC-6 cell in-vitro radiation model.
Formulation of JAC4 (1 μM or 10 μM): 5 mg of JAC4 was added to 1527 μL of DMSO to prepare a 10 mM stock solution, which was then serially diluted into 2 mM and 200 μM stock solutions.
10 μL of 200 μM stock solution was added into 90 μL of complete culture medium. The 100-μL mixture was uniformly mixed before 900 μL of complete culture medium was added, and uniformly mixed again before 1 mL of complete culture medium was added. The mixture was again uniformly mixed and then added into a six-well plate to give 1 μM JAC4.
Control wells: 10 μL of DMSO was added into 90 μL of complete culture medium. The 100-μL mixture was uniformly mixed before 900 μL of complete culture medium was added, and uniformly mixed again before 1 mL of complete culture medium was added. The mixture was again uniformly mixed and then added into a six-well plate.
IEC-6 cells were pretreated for 24 h with 1 μM JAC4 or DMSO and subjected to radiation (12 Gy) treatment. After 24 h, colocalized cell immunofluorescent images of mitochondrial cytochrome C staining and mitochondria staining were acquired and subjected to fluorescent colocalization analysis using the Image J software to give colocalization correlation coefficients (***p<0.001) of cytochrome C and mitochondria in IEC-6 cells after different treatments.

[3] = JAC4+X-ray group relative to X-ray group
[4] = JAC4 group relative to control group

c1ccc(CSc2nnc(C3COc4ccccc4O3)o2)nc1 (stereo not shown) [JAC4]
JWA protein level in lung tissue (immunoblot) (lung tissue; [3]): 1.25 folds | p-p65 protein level in lung tissue (immunoblot) (lung tissue; [3]): 0.61 folds | γ-H2AX protein level in lung tissue (immunoblot) (lung tissue; [3]): 0.83 folds | fluorescence intensities of γ-H2AX, TNF-α, and TGF-β1 in lung tissue (lung tissue; JAC4+X-ray group vs X-ray group, immunofluorescence): significantly decreased | JWA fluorescence intensity in lung tissue (lung tissue; JAC4 and JAC4+X-ray groups vs control group, immunofluorescence): higher JWA fluorescence intensity as compared with the control group | JWA protein level in lung tissue (immunoblot) (lung tissue; [4]): 4.23 folds | p-p65 protein level in lung tissue (immunoblot) (lung tissue; [4]): 0.63 folds | γ-H2AX protein level in lung tissue (immunoblot) (lung tissue; [4]): 0.91 folds | mean fluorescence intensity of γ-H2AX (IEC-6 cells [1]): 26.00±1.79 | fluorescent colocalization correlation coefficient of the mitochondria and cytochrome C (IEC-6 cells [2]): 0.73±0.02
